Measurements from patent EP4745137A1 (Gluetacs Therapeutics (Shanghai) Co., Ltd., priority 2023, dated 2025).

Tests used:
[1] = target: T1, GSPT1 (Homo sapiens, UniProt P15170+Q96SW2); assay: Western-blot assay of substrate protein degradation in hPBMCs, GSPT1; type: cell-based; conditions: 24 hours of compound treatment, compounds tested at 50 nM and 500 nM (concentration of the table not stated)
T1 construct: endogenous in cells; host or cells: hPBMCs (Milecell Biotechnologies)

[2] = target: T2, IKZF3 (Homo sapiens, UniProt Q96SW2+Q9UKT9); assay: Western-blot assay of substrate protein degradation in hPBMCs, IKZF3; type: cell-based; conditions: 24 hours of compound treatment, compounds tested at 50 nM and 500 nM (concentration of the table not stated)
T2 construct: endogenous in cells; host or cells: hPBMCs (Milecell Biotechnologies)
T2 sequence (Q9UKT9 whole entry): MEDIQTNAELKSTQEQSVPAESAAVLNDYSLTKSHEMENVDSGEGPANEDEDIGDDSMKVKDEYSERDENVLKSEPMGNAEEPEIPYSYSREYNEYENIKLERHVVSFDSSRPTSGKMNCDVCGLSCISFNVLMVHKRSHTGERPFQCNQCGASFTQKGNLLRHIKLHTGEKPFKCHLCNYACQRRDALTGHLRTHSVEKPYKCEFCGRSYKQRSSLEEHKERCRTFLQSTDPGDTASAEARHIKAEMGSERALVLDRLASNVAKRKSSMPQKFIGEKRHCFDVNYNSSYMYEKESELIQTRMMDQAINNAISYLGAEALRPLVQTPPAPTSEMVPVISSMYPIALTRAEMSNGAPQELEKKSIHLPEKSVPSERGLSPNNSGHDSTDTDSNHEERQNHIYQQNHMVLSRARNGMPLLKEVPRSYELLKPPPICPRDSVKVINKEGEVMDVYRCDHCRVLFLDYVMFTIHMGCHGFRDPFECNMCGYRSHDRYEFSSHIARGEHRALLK
T2 sequence (Q96SW2 whole entry): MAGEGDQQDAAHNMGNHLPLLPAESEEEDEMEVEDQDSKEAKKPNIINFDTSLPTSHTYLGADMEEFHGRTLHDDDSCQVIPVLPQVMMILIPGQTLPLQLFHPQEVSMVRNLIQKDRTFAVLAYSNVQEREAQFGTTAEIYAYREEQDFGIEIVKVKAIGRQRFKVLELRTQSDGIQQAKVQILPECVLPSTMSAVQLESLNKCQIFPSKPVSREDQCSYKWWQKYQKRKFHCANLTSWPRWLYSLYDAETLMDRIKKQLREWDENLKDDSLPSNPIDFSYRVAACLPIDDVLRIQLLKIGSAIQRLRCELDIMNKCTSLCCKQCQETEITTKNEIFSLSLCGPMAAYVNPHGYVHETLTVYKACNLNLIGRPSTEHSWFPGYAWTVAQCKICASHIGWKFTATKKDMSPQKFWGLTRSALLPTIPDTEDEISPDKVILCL
T2 sequence (Q16531 whole entry partner): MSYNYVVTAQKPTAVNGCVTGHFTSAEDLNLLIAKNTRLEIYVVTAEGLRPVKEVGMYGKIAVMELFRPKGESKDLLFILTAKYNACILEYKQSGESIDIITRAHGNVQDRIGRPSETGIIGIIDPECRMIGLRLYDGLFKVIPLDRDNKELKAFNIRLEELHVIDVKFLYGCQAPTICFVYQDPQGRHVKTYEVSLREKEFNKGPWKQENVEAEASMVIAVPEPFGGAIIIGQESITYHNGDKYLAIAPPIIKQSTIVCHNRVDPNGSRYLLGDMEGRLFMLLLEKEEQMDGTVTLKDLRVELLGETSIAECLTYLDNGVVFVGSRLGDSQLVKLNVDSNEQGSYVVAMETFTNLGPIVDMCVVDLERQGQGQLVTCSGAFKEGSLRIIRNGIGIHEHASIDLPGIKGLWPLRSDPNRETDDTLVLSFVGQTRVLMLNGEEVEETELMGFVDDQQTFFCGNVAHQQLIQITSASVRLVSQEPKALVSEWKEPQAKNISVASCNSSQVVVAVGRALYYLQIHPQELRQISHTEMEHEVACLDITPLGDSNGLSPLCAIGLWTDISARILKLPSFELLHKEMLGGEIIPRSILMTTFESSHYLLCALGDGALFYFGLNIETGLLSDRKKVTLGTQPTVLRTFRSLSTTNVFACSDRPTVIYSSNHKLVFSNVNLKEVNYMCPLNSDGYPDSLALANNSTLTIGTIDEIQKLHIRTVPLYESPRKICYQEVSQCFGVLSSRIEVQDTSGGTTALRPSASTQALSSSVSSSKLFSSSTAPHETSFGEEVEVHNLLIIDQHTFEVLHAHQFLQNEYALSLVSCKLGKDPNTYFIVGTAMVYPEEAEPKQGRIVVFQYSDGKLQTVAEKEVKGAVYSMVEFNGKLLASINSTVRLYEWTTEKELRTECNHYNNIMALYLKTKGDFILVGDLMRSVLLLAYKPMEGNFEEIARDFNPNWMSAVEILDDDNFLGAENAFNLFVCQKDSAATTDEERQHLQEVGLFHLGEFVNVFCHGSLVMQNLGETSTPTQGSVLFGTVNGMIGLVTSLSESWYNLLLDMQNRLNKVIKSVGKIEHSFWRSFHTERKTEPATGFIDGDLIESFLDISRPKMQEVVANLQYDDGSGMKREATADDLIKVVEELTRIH

[3] = target: T3, WEE1 (Homo sapiens, UniProt P30291+Q96SW2); assay: Western-blot assay of substrate protein degradation in hPBMCs, WEE1; type: cell-based; conditions: 24 hours of compound treatment, compounds tested at 50 nM and 500 nM (concentration of the table not stated)
T3 construct: endogenous in cells; host or cells: hPBMCs (Milecell Biotechnologies)
T3 sequence (P30291 whole entry): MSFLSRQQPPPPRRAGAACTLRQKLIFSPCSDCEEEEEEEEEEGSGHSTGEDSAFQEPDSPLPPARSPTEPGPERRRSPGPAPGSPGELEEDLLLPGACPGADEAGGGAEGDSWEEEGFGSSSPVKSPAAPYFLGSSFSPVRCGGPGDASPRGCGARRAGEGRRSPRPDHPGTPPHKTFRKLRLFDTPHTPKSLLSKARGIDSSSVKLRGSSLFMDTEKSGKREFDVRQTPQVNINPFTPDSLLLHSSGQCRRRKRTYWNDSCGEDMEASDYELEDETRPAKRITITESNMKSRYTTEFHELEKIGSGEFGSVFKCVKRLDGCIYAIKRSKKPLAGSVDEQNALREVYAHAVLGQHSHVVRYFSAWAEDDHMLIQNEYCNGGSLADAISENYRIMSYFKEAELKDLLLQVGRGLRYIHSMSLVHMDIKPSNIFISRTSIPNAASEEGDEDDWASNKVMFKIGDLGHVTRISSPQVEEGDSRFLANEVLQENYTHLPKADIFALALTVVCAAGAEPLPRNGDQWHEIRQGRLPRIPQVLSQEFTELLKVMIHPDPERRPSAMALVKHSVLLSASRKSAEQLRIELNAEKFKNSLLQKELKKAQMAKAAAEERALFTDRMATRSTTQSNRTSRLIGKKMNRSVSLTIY
T3 sequence (Q96SW2 whole entry): as the sequence (Q96SW2 whole entry) above
T3 sequence (Q16531 whole entry partner): as the sequence (Q16531 whole entry partner) above

[4] = target: T4, human Cereblon WT GST-tagged protein (Homo sapiens, UniProt Q96SW2); assay: CRBN-binding affinity by HTRF (CEREBLON BINDING kit); conditions: HTRF inhibitory activity, CEREBLON BINDING kit; read-out: HTRF IC50
T4 construct: purchased CISBIO 64BDCRBNPEH
T4 sequence (Q96SW2 whole entry): as the sequence (Q96SW2 whole entry) above

[5] = target: T5, CK1α (Homo sapiens, UniProt P48729+Q96SW2); assay: Western-blot assay of substrate protein degradation in hPBMCs, CK1α; type: cell-based; conditions: 24 hours of compound treatment, compounds tested at 50 nM and 500 nM (concentration of the table not stated)
T5 construct: endogenous in cells; host or cells: hPBMCs (Milecell Biotechnologies)
T5 sequence (P48729 whole entry): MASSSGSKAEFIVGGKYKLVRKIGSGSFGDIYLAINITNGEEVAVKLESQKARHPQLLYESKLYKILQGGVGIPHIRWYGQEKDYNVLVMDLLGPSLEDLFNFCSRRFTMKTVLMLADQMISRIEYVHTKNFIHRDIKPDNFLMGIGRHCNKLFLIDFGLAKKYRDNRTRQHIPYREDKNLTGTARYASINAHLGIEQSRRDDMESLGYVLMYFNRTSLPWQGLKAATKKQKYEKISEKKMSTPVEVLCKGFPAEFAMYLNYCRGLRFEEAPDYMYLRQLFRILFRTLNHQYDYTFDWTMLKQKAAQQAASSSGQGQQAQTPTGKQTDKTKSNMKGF
T5 sequence (Q96SW2 whole entry): as the sequence (Q96SW2 whole entry) above
T5 sequence (Q16531 whole entry partner): as the sequence (Q16531 whole entry partner) above

[6] = target: T6, IKZF2 (Homo sapiens, UniProt Q96SW2+Q9UKS7); assay: Western-blot assay of substrate protein degradation in hPBMCs, IKZF2; type: cell-based; conditions: 24 hours of compound treatment, compounds tested at 50 nM and 500 nM (concentration of the table not stated)
T6 construct: endogenous in cells; host or cells: hPBMCs (Milecell Biotechnologies)
T6 sequence (Q9UKS7 whole entry): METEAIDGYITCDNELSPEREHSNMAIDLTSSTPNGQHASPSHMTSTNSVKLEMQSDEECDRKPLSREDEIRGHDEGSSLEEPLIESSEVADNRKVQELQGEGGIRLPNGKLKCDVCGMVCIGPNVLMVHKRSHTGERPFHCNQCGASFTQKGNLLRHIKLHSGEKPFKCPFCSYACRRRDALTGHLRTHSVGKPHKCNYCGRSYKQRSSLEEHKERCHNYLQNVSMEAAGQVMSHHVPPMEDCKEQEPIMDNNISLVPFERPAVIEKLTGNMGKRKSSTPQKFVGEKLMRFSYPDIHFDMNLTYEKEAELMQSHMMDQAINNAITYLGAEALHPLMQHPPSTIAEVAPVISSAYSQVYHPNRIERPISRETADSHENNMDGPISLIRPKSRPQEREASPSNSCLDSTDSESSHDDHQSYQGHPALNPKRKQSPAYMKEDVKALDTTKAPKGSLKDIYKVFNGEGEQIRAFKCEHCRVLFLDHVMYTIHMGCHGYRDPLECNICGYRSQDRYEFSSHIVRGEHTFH
T6 sequence (Q96SW2 whole entry): as the sequence (Q96SW2 whole entry) above
T6 sequence (Q16531 whole entry partner): as the sequence (Q16531 whole entry partner) above

[7] = target: T7, IKZF1 (Homo sapiens, UniProt Q13422+Q96SW2); assay: Western-blot assay of substrate protein degradation in hPBMCs, IKZF1; type: cell-based; conditions: 24 hours of compound treatment, compounds tested at 50 nM and 500 nM (concentration of the table not stated)
T7 construct: endogenous in cells; host or cells: hPBMCs (Milecell Biotechnologies)
T7 sequence (Q13422 whole entry): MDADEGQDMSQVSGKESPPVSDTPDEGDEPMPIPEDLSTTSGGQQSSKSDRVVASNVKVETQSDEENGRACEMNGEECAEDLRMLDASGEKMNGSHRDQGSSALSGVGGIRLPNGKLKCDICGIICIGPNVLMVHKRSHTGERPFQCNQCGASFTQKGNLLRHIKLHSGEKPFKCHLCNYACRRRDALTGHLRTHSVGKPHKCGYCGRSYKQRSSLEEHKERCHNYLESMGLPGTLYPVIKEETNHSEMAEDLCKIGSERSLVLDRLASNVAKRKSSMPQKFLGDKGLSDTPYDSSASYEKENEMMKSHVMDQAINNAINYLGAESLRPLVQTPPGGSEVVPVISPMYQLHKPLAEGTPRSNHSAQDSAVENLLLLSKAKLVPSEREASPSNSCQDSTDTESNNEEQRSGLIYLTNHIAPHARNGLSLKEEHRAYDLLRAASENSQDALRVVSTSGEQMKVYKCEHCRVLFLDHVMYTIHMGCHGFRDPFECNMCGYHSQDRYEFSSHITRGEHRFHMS
T7 sequence (Q96SW2 whole entry): as the sequence (Q96SW2 whole entry) above
T7 sequence (Q16531 whole entry partner): as the sequence (Q16531 whole entry partner) above

Row | Compound | GSPT1 substrate protein remaining % [1] | IKZF3 substrate protein remaining % [2] | Weel substrate protein remaining % [3] | IC50 [4] [nM] | CK1a substrate protein remaining % [5] | IKZF2 substrate protein remaining % [6] | IKZF 1 substrate protein remaining % [7]
1 | O=C1CCC(N2Cc3cc(CN4CCN(c5nc(N6CCNCC6)c6sccc6n5)CC4)ccc3C2=O)C(=O)N1 (stereo not drawn) [GT-04698, 3-(1-oxo-5-((4-(4-(piperazin-1-yl)thieno[3,2-d]pyrimidin-2-yl)piperazin-1-yl)methyl)isoindolin-2-yl)piperidine-2,6-dione] | A (0% ≤ substrate protein remaining % ≤ 80%) | A (0% ≤ substrate protein remaining % ≤ 80%) | A (0% ≤ substrate protein remaining % ≤ 80%) | 500 to 1000 | B (80%< substrate protein remaining %≤ 100%) | A (0% ≤ substrate protein remaining % ≤ 80%) | A (0% ≤ substrate protein remaining % ≤ 80%)
2 | O=C1CCC(N2Cc3cc(CN4CC(C5CCOc6cc(F)ccc65)C4)ccc3C2=O)C(=O)N1 (stereo not drawn) [GT-04700, 3-(5-((3-(7-fluorochroman-4-yl)azetidin-1-yl)methyl)-1-oxoisoindolin-2-yl)piperidine-2,6-dione] | A (0% ≤ substrate protein remaining % ≤ 80%) | A (0% ≤ substrate protein remaining % ≤ 80%) | B (80%< substrate protein remaining %≤ 100%) | 500 to 1000 | B (80%< substrate protein remaining %≤ 100%) | A (0% ≤ substrate protein remaining % ≤ 80%) | A (0% ≤ substrate protein remaining % ≤ 80%)
3 | O=C1CCC(N2Cc3cc(CN4CCC(c5ncnc6sccc56)CC4)ccc3C2=O)C(=O)N1 (stereo not drawn) [GT-04702, 3-(1-oxo-5-((4-(thieno[2,3-d]pyrimidin-4-yl)piperidin-1-yl)methyl)isoindolin-2-yl)piperidine-2,6-dione] | A (0% ≤ substrate protein remaining % ≤ 80%) | A (0% ≤ substrate protein remaining % ≤ 80%) | B (80%< substrate protein remaining %≤ 100%) | 500 to 1000 | B (80%< substrate protein remaining %≤ 100%) | A (0% ≤ substrate protein remaining % ≤ 80%) | A (0% ≤ substrate protein remaining % ≤ 80%)
4 | CC(C)c1cc2c(N3CCN(Cc4ccc5c(c4)CN(C4CCC(=O)NC4=O)C5=O)CC3)ncnc2s1 (stereo not drawn) [GT-04705, 3-(5-((4-(6-isopropylthieno[2,3-d]pyrimidin-4-yl)piperazin-1-yl)methyl)-1-oxoisoindolin-2-yl)piperidine-2,6-dione] | A (0% ≤ substrate protein remaining % ≤ 80%) | A (0% ≤ substrate protein remaining % ≤ 80%) | B (80%< substrate protein remaining %≤ 100%) | 500 to 1000 | A (0% ≤ substrate protein remaining % ≤ 80%) | A (0% ≤ substrate protein remaining % ≤ 80%) | A (0% ≤ substrate protein remaining % ≤ 80%)
5 | Cc1sc2ncnc(N3CCN(Cc4ccc5c(c4)CN(C4CCC(=O)NC4=O)C5=O)CC3)c2c1C (stereo not drawn) [GT-04706, 3-(5-((4-(5,6-dimethylthieno[2,3-d]pyrimidin-4-yl)piperazin-1-yl)methyl)-1-oxoisoindolin-2-yl)piperidine-2,6-dione] | A (0% ≤ substrate protein remaining % ≤ 80%) | A (0% ≤ substrate protein remaining % ≤ 80%) | B (80%< substrate protein remaining %≤ 100%) | 500 to 1000 | A (0% ≤ substrate protein remaining % ≤ 80%) | A (0% ≤ substrate protein remaining % ≤ 80%) | A (0% ≤ substrate protein remaining % ≤ 80%)
6 | Cc1sc2ncnc(N3CCCN(Cc4ccc5c(c4)CN(C4CCC(=O)NC4=O)C5=O)CC3)c2c1C (stereo not drawn) [GT-04707, 3-(5-((4-(5,6-dimethylthieno[2,3-d]pyrimidin-4-yl)-1,4-diazepan-1-yl)methyl)-1-oxoisoindolin-2-yl)piperidine-2,6-dione] | A (0% ≤ substrate protein remaining % ≤ 80%) | A (0% ≤ substrate protein remaining % ≤ 80%) | B (80%< substrate protein remaining %≤ 100%) | < 500 | A (0% ≤ substrate protein remaining % ≤ 80%) | A (0% ≤ substrate protein remaining % ≤ 80%) | A (0% ≤ substrate protein remaining % ≤ 80%)
7 | O=C1CCC(N2Cc3cc(CN4CCN(c5ncnc6scc(-c7ccccc7)c56)CC4)ccc3C2=O)C(=O)N1 (stereo not drawn) [GT-04709, 3-(1-oxo-5-((4-(5-phenylthieno[2,3-d]pyrimidin-4-yl)piperazin-1-yl)methyl)isoindolin-2-yl)piperidine-2,6-dione] | A (0% ≤ substrate protein remaining % ≤ 80%) | A (0% ≤ substrate protein remaining % ≤ 80%) | B (80%< substrate protein remaining %≤ 100%) | < 500 | A (0% ≤ substrate protein remaining % ≤ 80%) | B (80%< substrate protein remaining %≤ 100%) | B (80%< substrate protein remaining %≤ 100%)
8 | O=C1CCC(N2Cc3cc(CN4CCC(n5c(=O)[nH]c6cc(F)ccc65)CC4)ccc3C2=O)C(=O)N1 (stereo not drawn) [GT-04714, 3-(5-((4-(5-fluoro-2-oxo-2,3-dihydro-1H-benzo[d]imidazol-1-yl)piperidin-1-yl)methyl)-1-oxoisoindolin-2-yl)piperidine-2,6-dione] | A (0% ≤ substrate protein remaining % ≤ 80%) | A (0% ≤ substrate protein remaining % ≤ 80%) | A (0% ≤ substrate protein remaining % ≤ 80%) | 500 to 1000 | A (0% ≤ substrate protein remaining % ≤ 80%) | A (0% ≤ substrate protein remaining % ≤ 80%) | A (0% ≤ substrate protein remaining % ≤ 80%)
9 | O=C1CCC(N2Cc3cc(CN4CCC(c5ccon5)CC4)ccc3C2=O)C(=O)N1 (stereo not drawn) [GT-04715, 3-(5-((4-(isoxazol-3-yl)piperidin-1-yl)methyl)-1-oxoisoindolin-2-yl)piperidine-2,6-dione] | A (0% ≤ substrate protein remaining % ≤ 80%) | A (0% ≤ substrate protein remaining % ≤ 80%) | A (0% ≤ substrate protein remaining % ≤ 80%) | 1500 to 1900 | A (0% ≤ substrate protein remaining % ≤ 80%) | A (0% ≤ substrate protein remaining % ≤ 80%) | A (0% ≤ substrate protein remaining % ≤ 80%)
